# Measurements from ChEMBL document CHEMBL4043296 (J Med Chem, 2018).
# Experiments:
# D(4) dopamine receptor = target: T1, D(4) dopamine receptor (Homo sapiens, UniProt P21917); test: Displacement of [3H]N-methylspiperone from human dopamine D4 receptor expressed in HEK293 cell membranes after 1 hr by scintillation counting method
# T1 sequence (P21917 whole entry): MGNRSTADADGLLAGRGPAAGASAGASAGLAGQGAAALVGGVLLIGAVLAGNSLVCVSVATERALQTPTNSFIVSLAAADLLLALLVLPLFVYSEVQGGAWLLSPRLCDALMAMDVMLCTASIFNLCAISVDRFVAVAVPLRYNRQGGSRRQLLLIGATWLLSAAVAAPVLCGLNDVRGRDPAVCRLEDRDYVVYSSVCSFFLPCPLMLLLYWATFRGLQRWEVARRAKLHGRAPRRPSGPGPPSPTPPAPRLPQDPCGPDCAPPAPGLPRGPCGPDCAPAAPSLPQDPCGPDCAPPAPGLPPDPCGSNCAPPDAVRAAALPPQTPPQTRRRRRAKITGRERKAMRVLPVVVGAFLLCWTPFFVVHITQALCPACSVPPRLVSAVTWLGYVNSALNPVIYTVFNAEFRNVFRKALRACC
# [1] = target: T2, Muscarinic acetylcholine receptor M1 (Homo sapiens, UniProt P11229); test: Displacement of [3H]NMS from human muscarinic M1 receptor expressed in CHO cell membranes after 2 hrs by liquid scintillation counting method
# T2 sequence (P11229 whole entry): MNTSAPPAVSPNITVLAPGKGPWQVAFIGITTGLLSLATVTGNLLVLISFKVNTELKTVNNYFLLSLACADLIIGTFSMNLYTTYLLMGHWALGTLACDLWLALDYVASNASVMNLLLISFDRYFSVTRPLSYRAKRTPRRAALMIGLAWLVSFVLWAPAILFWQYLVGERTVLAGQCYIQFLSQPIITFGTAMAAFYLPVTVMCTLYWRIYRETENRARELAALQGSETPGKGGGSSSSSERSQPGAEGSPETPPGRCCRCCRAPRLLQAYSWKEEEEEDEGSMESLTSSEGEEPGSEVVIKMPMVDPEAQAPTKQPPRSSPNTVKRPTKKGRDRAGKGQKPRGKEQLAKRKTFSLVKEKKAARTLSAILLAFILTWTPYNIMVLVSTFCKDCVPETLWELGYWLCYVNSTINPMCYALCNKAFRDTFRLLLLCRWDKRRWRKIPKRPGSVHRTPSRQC
# [2] = target: Muscarinic acetylcholine receptor M3 (Homo sapiens, UniProt P20309); test: Displacement of [3H]NMS from human muscarinic M3 receptor expressed in CHO cell membranes after 2 hrs by liquid scintillation counting method
# Muscarinic acetylcholine receptor M3, sequence (P20309 whole entry): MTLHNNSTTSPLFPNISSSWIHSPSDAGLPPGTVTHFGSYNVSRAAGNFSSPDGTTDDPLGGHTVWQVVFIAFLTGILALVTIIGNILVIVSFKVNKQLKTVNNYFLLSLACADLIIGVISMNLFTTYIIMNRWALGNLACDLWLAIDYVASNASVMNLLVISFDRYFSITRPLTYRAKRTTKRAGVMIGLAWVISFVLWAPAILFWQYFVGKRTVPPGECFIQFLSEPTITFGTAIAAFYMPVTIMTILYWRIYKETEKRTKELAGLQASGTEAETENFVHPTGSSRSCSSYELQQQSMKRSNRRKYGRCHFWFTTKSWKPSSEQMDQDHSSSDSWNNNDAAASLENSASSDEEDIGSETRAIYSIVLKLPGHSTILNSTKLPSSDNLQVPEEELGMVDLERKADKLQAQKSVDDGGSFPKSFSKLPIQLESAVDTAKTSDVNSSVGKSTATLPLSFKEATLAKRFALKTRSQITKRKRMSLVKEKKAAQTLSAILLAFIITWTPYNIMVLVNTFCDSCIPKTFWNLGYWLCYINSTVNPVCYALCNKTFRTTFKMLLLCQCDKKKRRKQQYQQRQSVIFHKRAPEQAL
# [3] = target: T3, Muscarinic acetylcholine receptor M5 (Homo sapiens, UniProt P08912); test: Displacement of [3H]NMS from human muscarinic M5 receptor expressed in CHO cell membranes after 2 hrs by liquid scintillation counting method
# T3 sequence (P08912 whole entry): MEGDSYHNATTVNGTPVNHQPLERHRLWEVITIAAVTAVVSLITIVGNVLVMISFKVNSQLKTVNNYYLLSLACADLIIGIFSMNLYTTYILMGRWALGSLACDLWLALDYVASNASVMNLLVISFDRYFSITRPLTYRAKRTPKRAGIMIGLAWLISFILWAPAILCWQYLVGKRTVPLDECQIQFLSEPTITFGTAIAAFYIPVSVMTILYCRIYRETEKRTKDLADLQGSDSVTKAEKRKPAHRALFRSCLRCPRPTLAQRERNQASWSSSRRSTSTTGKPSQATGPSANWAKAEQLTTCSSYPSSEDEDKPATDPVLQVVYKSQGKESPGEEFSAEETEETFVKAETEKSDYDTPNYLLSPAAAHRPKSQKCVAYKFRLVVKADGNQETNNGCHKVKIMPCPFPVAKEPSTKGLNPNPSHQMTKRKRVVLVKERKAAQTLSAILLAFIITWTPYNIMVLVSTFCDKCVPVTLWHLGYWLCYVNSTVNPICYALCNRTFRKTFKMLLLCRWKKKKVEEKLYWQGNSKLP
# [4] = target: T4, Alpha-1D adrenergic receptor (Homo sapiens, UniProt P25100); test: Displacement of [3H]prazosin from human recombinant alpha-1D adrenergic receptor expressed in CHO cell membranes after 30 mins by liquid scintillation counting method
# T4 sequence (P25100 whole entry): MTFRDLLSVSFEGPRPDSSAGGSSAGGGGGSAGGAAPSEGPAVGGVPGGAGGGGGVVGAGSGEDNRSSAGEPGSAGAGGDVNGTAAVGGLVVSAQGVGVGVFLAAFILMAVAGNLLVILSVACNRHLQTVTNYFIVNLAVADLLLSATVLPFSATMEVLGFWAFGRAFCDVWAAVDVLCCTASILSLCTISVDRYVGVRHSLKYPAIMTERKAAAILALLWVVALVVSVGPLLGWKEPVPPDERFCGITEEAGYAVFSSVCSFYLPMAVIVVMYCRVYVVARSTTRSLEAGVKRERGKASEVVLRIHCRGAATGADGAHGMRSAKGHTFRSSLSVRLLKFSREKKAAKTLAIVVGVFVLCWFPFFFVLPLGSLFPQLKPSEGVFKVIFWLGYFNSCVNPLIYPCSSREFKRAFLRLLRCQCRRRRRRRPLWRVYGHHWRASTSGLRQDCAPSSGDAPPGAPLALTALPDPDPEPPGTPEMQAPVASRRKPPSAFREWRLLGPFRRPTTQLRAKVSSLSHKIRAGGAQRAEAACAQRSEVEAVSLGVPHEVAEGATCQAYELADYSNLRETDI
# [5] = target: T5, Muscarinic acetylcholine receptor M4 (Homo sapiens) (UniProt P08173); test: Agonist activity at human SP/Myc epitope-tagged muscarinic M4 receptor expressed in HEK293T cells assessed as RLuc8-fused Galphaq activation after 2 mins by BRET assay relative to carbachol; assay type: cell-based; conditions: HEK-293T
# T5 sequence (whole entry): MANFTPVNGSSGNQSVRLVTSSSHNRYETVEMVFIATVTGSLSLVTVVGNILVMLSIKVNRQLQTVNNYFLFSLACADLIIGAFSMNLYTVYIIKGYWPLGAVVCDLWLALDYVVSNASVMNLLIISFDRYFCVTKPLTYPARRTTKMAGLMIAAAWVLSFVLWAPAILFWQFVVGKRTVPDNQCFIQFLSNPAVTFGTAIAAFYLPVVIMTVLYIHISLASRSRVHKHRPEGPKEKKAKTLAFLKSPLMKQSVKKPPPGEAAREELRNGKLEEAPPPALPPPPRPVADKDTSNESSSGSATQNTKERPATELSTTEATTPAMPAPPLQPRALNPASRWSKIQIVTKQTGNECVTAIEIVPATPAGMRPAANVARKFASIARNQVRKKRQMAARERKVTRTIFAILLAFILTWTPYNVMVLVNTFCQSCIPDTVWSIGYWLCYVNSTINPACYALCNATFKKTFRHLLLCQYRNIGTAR
# [6] = target: T5, Muscarinic acetylcholine receptor M4 (Homo sapiens); test: (§1) Antagonist activity at human SP/Myc epitope-tagged muscarinic M4 receptor expressed in HEK293T cells assessed as inhibition of carbachol-induced mVenus-fused beta-arrestin2 recruitment preincubated for 15 mins followed by carbachol induction measured after 2 mins by BRET assay; assay type: cell-based; conditions: HEK-293T
# [7] = target: T6, Muscarinic acetylcholine receptor M4 (Homo sapiens, UniProt P08173); test: as §1; assay type: cell-based, HEK-293T
# T6 sequence (P08173 whole entry): T5 sequence (whole entry)
# [8] = Fraction unbound in mouse brain at 5 uM by equilibrium dialysis method; assay type: ADME, tissue-based
SMILES,Ki (D(4) dopamine receptor) [µM],Ki [1] [µM],Ki [2] [µM],Ki [3] [µM],Ki [4] [µM],Emax [5] [%],Imax [6] [%],IC50 [7] [µM],fraction unbound at 5 µM [8]
O=C1CCc2ccccc2N1CCCN1CCC(Cc2ccccc2)CC1,0.00126,0.363,3.02,3.72,0.302,24,72,1.23,0.051
O=C1CCc2ccccc2N1CCCN1CCN(c2ccccc2)CC1,0.00288,4.27,17.8,27.5,0.0912,17,74,12,0.086
